According to the supplement of paper PMC4858399:

How the values were obtained:
Settings in all cases: exposure time 48 h
[1] = test system: Caenorhabditis elegans N2; experiment: lowest effective concentration for larval growth inhibition (size below effect threshold); higher = less potent
In short: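 In 96-well plates, 50 C. elegans N2 L1 larvae per well were cultured at 20°C for 48 h in K-medium with killed bacteria and 1% DMSO, plus the chemical at 0.5, 1, 5, 10, 50, 100 or 200 µM. Size was measured as per-worm extinction on a Biosort and log-transformed into well means. Taking the first dose where the plate-adjusted mean size sits under 5.665 and stays there at higher doses gives the lowest effective concentration.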

[2] = test system: Caenorhabditis elegans N2; experiment: AC50 for larval growth inhibition (Hill fit); higher = less potent
In short: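 Synchronised C. elegans N2 L1 larvae, 50 per well in 96-well plates, were grown at 20°C for 48 h in K-medium with killed OP50, 1% DMSO and 0.5–200 µM chemical. Worm size was read on a COPAS Biosort as extinction, log-transformed and averaged per well, and only wells holding at least 10 worms were kept. AC50 was obtained by a constrained Hill fit using weighted genetic-algorithm regression, with out-of-range values censored.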

[3] = test system: Caenorhabditis elegans N2; experiment: mean nematode size ln(EXT) after 48 h, plate-adjusted (DMSO control set to 6) (ln(EXT), control-adjusted); higher = larger nematodes / less growth inhibition
In short: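 In K-medium with killed OP50, 1% DMSO and 0.5–200 µM chemical, synchronised N2 L1 larvae of C. elegans (50 per well) grew for 48 h at 20°C. Extinction was read for every worm on the Biosort, with debris removed by a growth model. Natural-log values averaged per well gave mean size, which was corrected per plate by subtracting the vehicle control mean and adding 6.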

Structure (SMILES)	lowest effective concentration [1] [µM]	AC50 for larval growth inhibition [2] [µM]	mean nematode size ln(EXT) (ln) ([3]; 0.5 µM)	mean nematode size ln(EXT) (ln) ([3]; 1 µM)	mean nematode size ln(EXT) (ln) ([3]; 5 µM)	mean nematode size ln(EXT) (ln) ([3]; 10 µM)	mean nematode size ln(EXT) (ln) ([3]; 50 µM)	mean nematode size ln(EXT) (ln) ([3]; 100 µM)	mean nematode size ln(EXT) (ln) ([3]; 200 µM)
C#CCC1=C(C)C(OC(=O)C2C(C=C(C)C)C2(C)C)CC1=O (stereo unspecified) [Prallethrin]	200	188	5.85	6.08	6.07	6.04	5.94	6.04	4.41
c1ccc2c(c1)-c1cccc3cccc-2c13 [Fluoranthene]	5	9.33	5.79	5.87	5.65	5.05	4.05	3.8	4.82
CCCN(CC)CC1COC2(CCC(C(C)(C)C)CC2)O1 (stereo unspecified) [Spiroxamine]	200	184	5.61	5.84	5.9	6.1	5.84	6.17	3.97
C[C@]12C=CC(=O)C=C1CC[C@@H]1[C@@H]2C(=O)C[C@@]2(C)[C@H]1CC[C@]2(O)C(=O)CO [Prednisone]	100	52.4	6.09	5.82	5.85	5.87	5.86	5.47	5.62
Brc1ccc(Oc2ccccc2)cc1 [p-Bromodiphenyl-ether]	5	52.5	5.7	5.75	5.55	5.54	4.74	4.03	3.65
CC(C)(c1ccc(O)cc1)c1ccc(O)cc1 [Bisphenol A]	200	> 200	5.83	5.86	5.99	5.88	5.95	5.96	5.46
CC(C)CCCCCCOC(=O)C1CCCCC1C(=O)OCCCCCCC(C)C (stereo unspecified)	200	> 200	5.92	5.97	5.87	5.9	5.87	5.84	5.66
O=C(Nc1ccc2[nH]ccc2c1)c1cc2cc(F)ccc2n1Cc1cccc(F)c1	1	6.54	5.77	5.57	5.5	3.83	3.84	3.62	3.51
CC(Cc1ccc(OCC(=O)O)cc1)NCC(O)c1csc(C(F)(F)F)n1 (stereo unspecified)	200	> 200	5.86	5.88	5.84	6.03	5.84	5.89	5.4
CC(C)(C)CC(C)(C)c1ccc(O)cc1 [4-(1,1,3,3-Tetramethylbutyl)phenol]	50	101	6.09	6.01	6.04	5.97	5.53	4.62	3.54
CCc1ccc(C(=O)NN(C(=O)c2cc(C)cc(C)c2)C(C)(C)C)cc1 [Tebufenozide]	200	> 200	6.1	6.49	6.28	6.07	5.96	6.06	5.38
COP(=O)(OC)OC=C(Cl)Cl [Dichlorvos]	50	80.4	6.07	6.12	5.84	5.87	5.05	4.4	3.3
CCCOc1nn(C(=O)NS(=O)(=O)c2ccccc2C(=O)OC)c(=O)n1C [Propoxycarbazone-sodium]	200	> 200	5.79	5.97	6.22	6.16	5.99	5.96	5.38
O=Cc1ccccc1C=O [1,2-Benzenedicarboxaldehyde]	50	62	5.83	5.92	5.82	5.93	5.24	4.04	3.73
Cc1c(C)c2c(c(C)c1O)CCC(C)(COc1ccc(CC3SC(=O)NC3=O)cc1)O2 (stereo unspecified) [Troglitazone]	50	47.7	5.7	5.77	5.66	5.69	4.39	4.11	3.59
CO[C@H]1/C=C/O[C@@]2(C)Oc3c(C)c(O)c4c(O)c(c(/C=N/N5CCN(C)CC5)c(O)c4c3C2=O)NC(=O)/C(C)=C\C=C\[C@H](C)[C@H](O)[C@@H](C)[C@@H](O)[C@@H](C)[C@H](OC(C)=O)[C@@H]1C [Rifampicin]	200	> 200	5.96	5.92	5.94	5.98	5.84	5.84	5.56
CC(C)(C)C(O)/C(=C/c1ccc(Cl)cc1Cl)n1cncn1 (stereo unspecified) [Diniconazole]	10	38.3	5.97	5.84	5.68	5.59	4.97	3.98	4.28
O=C(NC(=O)c1c(F)cccc1F)Nc1ccc(OC(F)(F)C(F)OC(F)(F)F)c(Cl)c1 (stereo unspecified) [Novaluron]	50	> 200	5.83	5.74	5.85	5.88	5.61	5.12	4.56
c1ccc(NNc2ccccc2)cc1 [1,2-Diphenylhydrazine]	50	78.8	5.81	5.72	5.71	5.69	5.22	4.11	3.42
